Test results published in patent publication US8987312B2, “Alpha-keto heterocycles as FAAH inhibitors” (The Scripps Research Institute, priority 2008, dated 2015).
Like-named read-outs stand apart in the source and are kept apart here.

Experiments:
[1] = rats; cited from earlier work
[2] = rat; cited from earlier work
[3] = target: T1, purified recombinant rat FAAH (Rattus norvegicus, UniProt P97612); assay: FAAH inhibition enzyme assay (14C-oleamide hydrolysis, Dixon plot), rat enzyme; assay type: biochemical
T1 construct: The truncated rat FAAH (rFAAH) was expressed in E. coli and purified as described; made in house; host or cells: Escherichia coli
T1 sequence (P97612 30-579 limits assumed): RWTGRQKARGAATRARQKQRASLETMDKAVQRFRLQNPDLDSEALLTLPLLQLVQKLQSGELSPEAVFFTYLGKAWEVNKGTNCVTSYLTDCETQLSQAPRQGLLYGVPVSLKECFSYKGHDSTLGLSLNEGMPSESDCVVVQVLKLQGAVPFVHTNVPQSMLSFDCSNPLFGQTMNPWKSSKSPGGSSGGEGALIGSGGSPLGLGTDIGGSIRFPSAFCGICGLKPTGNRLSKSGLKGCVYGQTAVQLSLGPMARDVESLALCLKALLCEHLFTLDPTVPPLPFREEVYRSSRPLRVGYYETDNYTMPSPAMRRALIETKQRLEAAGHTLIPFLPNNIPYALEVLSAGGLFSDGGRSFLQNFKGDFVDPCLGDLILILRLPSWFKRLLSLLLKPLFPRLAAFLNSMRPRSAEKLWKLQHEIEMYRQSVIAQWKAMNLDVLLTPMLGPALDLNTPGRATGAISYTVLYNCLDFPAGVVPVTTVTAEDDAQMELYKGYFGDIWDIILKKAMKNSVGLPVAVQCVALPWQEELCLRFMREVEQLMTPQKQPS
Source text: (§1) The purified recombinant rFAAH was used in the inhibition assays unless otherwise indicated.
(§2) The ^14C-labeled oleamide (substrate) and oleic acid (product) were extracted with EtOAc and analyzed by TLC.

FAAH [4] = target: T2, FAAH (Mus musculus, UniProt O08914); assay: Activity based protein profiling (proteome-wide selectivity screening, FP-Rh), FAAH; assay type: biochemical; settings: Table 4
T2 construct: with FP-Rh in brain and heart membrane proteome; from tissue; host or cells: brain and heart membrane proteome
T2 sequence (O08914 1-579): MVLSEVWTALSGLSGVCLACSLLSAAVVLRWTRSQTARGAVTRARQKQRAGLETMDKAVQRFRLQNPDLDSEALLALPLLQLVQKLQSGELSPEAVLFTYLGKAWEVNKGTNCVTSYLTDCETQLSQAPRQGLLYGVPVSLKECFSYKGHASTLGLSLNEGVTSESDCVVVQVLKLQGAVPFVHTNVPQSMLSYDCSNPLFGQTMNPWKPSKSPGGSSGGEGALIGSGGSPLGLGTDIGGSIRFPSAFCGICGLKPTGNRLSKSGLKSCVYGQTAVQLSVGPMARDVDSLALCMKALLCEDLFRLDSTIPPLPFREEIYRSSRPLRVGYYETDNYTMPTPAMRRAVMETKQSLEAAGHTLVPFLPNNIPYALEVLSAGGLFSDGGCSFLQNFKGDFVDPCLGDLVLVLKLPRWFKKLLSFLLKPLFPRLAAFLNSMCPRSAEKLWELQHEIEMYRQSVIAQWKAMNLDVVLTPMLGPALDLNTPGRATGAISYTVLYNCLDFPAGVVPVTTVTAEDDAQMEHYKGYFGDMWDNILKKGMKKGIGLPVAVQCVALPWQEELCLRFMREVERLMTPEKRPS
Source text: (§3) Enzyme targets such as FAAH, KIAA1363, and TGH are labeled at the left margin.

[5] = target: T3, triacylglycerol hydrolase (TGH) (Mus musculus, UniProt Q8VCT4); assay: Activity based protein profiling (proteome-wide selectivity screening, FP-Rh), TGH; assay type: biochemical; settings: Table 4; for IC50: activity based protein profiling; for TGH selectivity (value in parentheses): ratio TGH IC50 / FAAH IC50 (fold selectivity for FAAH)
T3 construct: with FP-Rh in brain and heart membrane proteome; from tissue; host or cells: brain and heart membrane proteome
T3 sequence (Q8VCT4 19-565): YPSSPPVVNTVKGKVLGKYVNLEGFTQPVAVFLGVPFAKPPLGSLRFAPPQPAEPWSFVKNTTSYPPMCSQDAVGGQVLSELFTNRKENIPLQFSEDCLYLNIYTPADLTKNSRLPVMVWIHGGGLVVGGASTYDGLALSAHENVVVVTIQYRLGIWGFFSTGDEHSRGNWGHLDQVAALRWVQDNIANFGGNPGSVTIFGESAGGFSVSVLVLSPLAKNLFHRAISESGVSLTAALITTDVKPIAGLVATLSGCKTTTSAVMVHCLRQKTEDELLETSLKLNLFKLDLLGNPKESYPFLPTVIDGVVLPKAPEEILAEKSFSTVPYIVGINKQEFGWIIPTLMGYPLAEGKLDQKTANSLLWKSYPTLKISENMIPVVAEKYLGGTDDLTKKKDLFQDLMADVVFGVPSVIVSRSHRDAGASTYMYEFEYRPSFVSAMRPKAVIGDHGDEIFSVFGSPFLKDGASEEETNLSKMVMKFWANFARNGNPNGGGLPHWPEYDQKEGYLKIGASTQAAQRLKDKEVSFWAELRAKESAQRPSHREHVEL
Source text: as §3

[6] = target: T4, recombinant human fatty acid amide hydrolase (Homo sapiens, UniProt O00519); assay: FAAH inhibition enzyme assay, human enzyme (COS-7 lysate); assay type: biochemical; settings: Table 3
T4 construct: The full-length human FAAH (hFAAH) was expressed in COS-7 cells as described; expressed in transfected cells; host or cells: COS-7
T4 sequence (O00519 1-579): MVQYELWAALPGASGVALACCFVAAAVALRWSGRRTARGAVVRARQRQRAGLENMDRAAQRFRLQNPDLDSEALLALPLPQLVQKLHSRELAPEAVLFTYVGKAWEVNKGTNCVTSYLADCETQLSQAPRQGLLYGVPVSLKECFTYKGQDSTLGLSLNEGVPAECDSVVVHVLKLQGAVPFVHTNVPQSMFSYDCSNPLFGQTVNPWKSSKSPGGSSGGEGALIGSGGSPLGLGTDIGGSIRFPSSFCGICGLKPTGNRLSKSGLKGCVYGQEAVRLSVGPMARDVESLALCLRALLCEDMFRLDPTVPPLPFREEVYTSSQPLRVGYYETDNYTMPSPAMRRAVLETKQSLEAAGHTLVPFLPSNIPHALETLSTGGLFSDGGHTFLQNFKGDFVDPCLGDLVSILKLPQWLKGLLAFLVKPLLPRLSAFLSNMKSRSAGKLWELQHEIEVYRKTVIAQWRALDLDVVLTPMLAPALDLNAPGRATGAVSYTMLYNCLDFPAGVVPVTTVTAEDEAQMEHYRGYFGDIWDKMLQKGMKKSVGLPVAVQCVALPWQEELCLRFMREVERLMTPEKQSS
Source text: as §1, §2

KIAA1363 = target: T5, KIAA1363 (Mus musculus, UniProt Q8BLF1); assay: Activity based protein profiling (proteome-wide selectivity screening, FP-Rh), KIAA1363; assay type: biochemical; settings: Table 4; for IC50: activity based protein profiling; for KIAA1363 selectivity (value in parentheses): ratio KIAA1363 IC50 / FAAH IC50 (fold selectivity for FAAH)
T5 construct: with FP-Rh in brain and heart membrane proteome; from tissue; host or cells: brain and heart membrane proteome
T5 sequence (Q8BLF1 1-408): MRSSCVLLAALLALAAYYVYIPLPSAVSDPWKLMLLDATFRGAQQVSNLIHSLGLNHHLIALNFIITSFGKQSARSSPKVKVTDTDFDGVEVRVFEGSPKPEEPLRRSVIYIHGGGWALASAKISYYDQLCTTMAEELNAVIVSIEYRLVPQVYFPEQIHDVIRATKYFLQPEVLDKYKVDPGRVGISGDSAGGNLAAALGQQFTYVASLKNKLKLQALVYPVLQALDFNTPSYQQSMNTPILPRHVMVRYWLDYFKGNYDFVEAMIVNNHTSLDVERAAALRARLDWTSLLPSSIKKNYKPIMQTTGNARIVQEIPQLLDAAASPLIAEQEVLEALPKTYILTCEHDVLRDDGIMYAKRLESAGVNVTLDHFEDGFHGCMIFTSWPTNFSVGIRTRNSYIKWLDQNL
Source text: as §3

[7] = CREAE mice; cited from earlier work
[8] = rats; cited from earlier work; remark: listed apart in the source
FAAH [9] = settings: cited from earlier work
[10] = rats; cited from earlier work; remark: listed apart in the source
[11] = rats; cited from earlier work; remark: listed apart in the source
[12] = Table 2, rat FAAH, pH 9 assay conditions, read-out: Ki
[13] = Table 3, rat FAAH, read-out: Ki, μM (rat)

Row | Compound | Ki [3, 12] | Ki [3, 13] | Ki ([3]; Table 4, read-out: FAAH Ki) | IC50 (FAAH [4]) | IC50 [5] | TGH selectivity (value in parentheses) [5] | Ki [6] | IC50 (KIAA1363) | KIAA1363 selectivity (value in parentheses) (KIAA1363) | further results
1 | NC(=O)c1cccc(-c2cccc(OC(=O)NC3CCCCC3)c2)c1 [URB-597] |  |  |  |  |  |  |  |  |  | efficacy in model of anxiety [1]: efficacy; analgesic efficacy / activity, hot plate [2]: analgesic efficacy
2 | O=C(CCCCCCc1ccccc1)c1nc(-c2ccccn2)no1 [9b, 7-Phenyl-1-(3-(pyridin-2-yl)-1,2,4-oxadiazol-5-yl)-heptan-1-one] | 0.00034 µM | 0.00034 µM | 0.00034 µM | 0.003 µM | 0.03 µM | 10 | 0.00092 µM | 30 µM | 10000 | 
3 | CCCCCCCCCCCCCCCCS(=O)(=O)F [AM374] |  |  |  |  |  |  |  |  |  | spasticity [7]: significantly reduce spasticity
4 | O=C(CCCCCCc1ccccc1)c1nnc(-c2ccccn2)s1 [12b, 7-Phenyl-1-(5-(pyridin-2-yl)-1,3,4-thiadiazol-2-yl)-heptan-1-one] | 0.0008 µM | 0.0008 µM | 0.0008 µM | 0.03 µM | 4.5 µM | 150 | 0.003 µM | > 100 µM | > 3300 | 
5 | O=C(CCCCCCc1ccccc1)c1noc(-c2ccccn2)n1 [10b, 7-Phenyl-1-(5-(pyridin-2-yl)-1,2,4-oxadiazol-3-yl)-heptan-1-one] | 0.0011 µM | 0.0011 µM | 0.0011 µM | 0.007 µM | 0.4 µM | 60 | 0.016 µM | > 100 µM | > 14000 | 
6 | O=C(CCCCCCc1ccccc1)c1ncc(-c2ccccn2)o1 [OL-135] |  |  |  |  |  |  |  |  |  | analgesic activity, tail emersion [8]: analgesic activity; FAAH inhibition (in words) (FAAH [9]): potent inhibitor; analgesic efficacy / activity, hot plate [2]: analgesic activity
7 | O=C(CCCCCCc1ccccc1)c1nnc(-c2ccccn2)o1 [8b, 7-Phenyl-1-(5-(pyridin-2-yl)-1,3,4-oxadiazol-2-yl)-heptan-1-one] | 0.00029 µM | 0.00029 µM | 0.00029 µM |  |  | 140 | 0.0012 µM | 90 µM | 90000 | 
8 | Cc1nc(-c2ccccc2)c(-c2ccccc2)n1CCCCCCNC(=O)Oc1ccccc1F [BMS-1] |  |  |  |  |  |  |  |  |  | analgesic effect [10]: analgesic effect; analgesic effect [11]: analgesic effect
9 | O=C(O)c1cccc(-c2nnc(C(=O)CCCCCCc3ccccc3)o2)n1 [8g] |  |  |  |  | 40 µM |  | 0.037 µM | > 100 µM |  | 
10 | O=C(O)c1cccc(-c2nc(C(=O)CCCCCCc3ccccc3)no2)n1 [10g, 6-(3-(7-Phenylheptanoyl)-1,2,4-oxadiazol-5-yl)-picolinic Acid] | 0.053 µM | 0.053 µM | 0.053 µM | 0.07 µM | > 100 µM | > 1400 | 0.11 µM | > 100 µM | > 1400 | 
11 | O=C(CCCCCCc1ccccc1)c1nnn(-c2ccccn2)n1 [15b, 7-Phenyl-1-(2-(pyridin-2-yl)-2H-tetrazol-5-yl)-heptan-1-one] |  |  |  |  | 0.12 µM |  | 0.0055 µM | > 100 µM |  | 
12 | O=C(O)c1cccc(-c2cnc(C(=O)CCCCCCc3ccccc3)o2)n1 [7g] |  |  |  | 0.1 µM | > 100 µM | > 1000 | 0.026 µM | > 100 µM | > 1000 | Ki ([3]; pH=7.4 (physiological pH), read-out: Ki): 0.0103 µM; Ki ([3]; pH=8, read-out: Ki): 0.0145 µM
